Test results taken from the supplement of paper PMC10307832.

Tests used:
Experiment in all cases: relative viability (nuclei count vs DMSO), 5 days (fraction); higher = more cells survive
Obatoclax + Tozasertib = compound: COC1=CC(c2cc3ccccc3[nH]2)=N/C1=C\c1[nH]c(C)cc1C [Obatoclax] + Cc1cc(Nc2cc(N3CCN(C)CC3)nc(Sc3ccc(NC(=O)C4CC4)cc3)n2)n[nH]1 [Tozasertib] (partner 0.1 µM)
Summary of the method: (§1)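 Lung cancer cell lines in 1536-well plates got either a single drug or a fixed anchor-drug dose together with five library-drug doses (not always all listed) in √10 steps, by pin tool, on the day after seeding. Nuclei were counted after 5 days, and relative viability is the treated-to-vehicle ratio of nuclei counts. Values are medians of duplicate plates.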

[1] = compound: CC1=CC(=NN1)NC2=CC(=NC(=N2)/C=C/C3=CC=CC=C3)N4CCN(CC4)C + C[C@]1(O)C[C@@H](c2nc(-c3ccc4ccc(-c5ccccc5)nc4c3)c3c(N)nccn32)C1 [Linsitinib] (partner 1 µM)
Summary of the method: as §1

Obatoclax + Crizotinib = compound: COC1=CC(c2cc3ccccc3[nH]2)=N/C1=C\c1[nH]c(C)cc1C [Obatoclax] + C[C@@H](Oc1cc(-c2cnn(C3CCNCC3)c2)cnc1N)c1c(Cl)ccc(F)c1Cl [Crizotinib] (partner 1 µM)
Summary of the method: as §1

[2] = compound: CC1=CC(=NN1)NC2=CC(=NC(=N2)/C=C/C3=CC=CC=C3)N4CCN(CC4)C + CC(=O)Nc1cccc(-n2c(=O)n(C3CC3)c(=O)c3c(Nc4ccc(I)cc4F)n(C)c(=O)c(C)c32)c1 [Trametinib] (partner 0.02 µM)
Summary of the method: as §1

## NCI-H650
Obatoclax + Tozasertib; first compound 0.01 µM
  relative viability: 0.732
Obatoclax + Tozasertib; first compound 0.03162 µM
  relative viability: 0.779
Obatoclax + Tozasertib; first compound 0.3162 µM
  relative viability: 0.631
Obatoclax + Tozasertib; first compound 1 µM
  relative viability: 0.309
[1]; first compound 0.08 µM
  relative viability: 0.674
[1]; first compound 0.253 µM
  relative viability: 1.06
[1]; first compound 0.8 µM
  relative viability: 0.777
[1]; first compound 2.53 µM
  relative viability: 0.278
[1]; first compound 8 µM
  relative viability: 0.202
Obatoclax + Crizotinib; first compound 0.01 µM
  relative viability: 0.717
Obatoclax + Crizotinib; first compound 0.03162 µM
  relative viability: 0.668
Obatoclax + Crizotinib; first compound 0.1 µM
  relative viability: 0.561
Obatoclax + Crizotinib; first compound 0.3162 µM
  relative viability: 0.498
Obatoclax + Crizotinib; first compound 1 µM
  relative viability: 0.323
[2]; first compound 0.08 µM
  relative viability: 0.891
[2]; first compound 0.253 µM
  relative viability: 0.706
[2]; first compound 0.8 µM
  relative viability: 0.907
[2]; first compound 2.53 µM
  relative viability: 0.627
[2]; first compound 8 µM
  relative viability: 0.166
